± gives the expanded uncertainty stated by the source.
Key:
[1] = Crystal; DTA
[2] = Molar enthalpy of transition or fusion; conditions: Crystal; DSC

Normal melting temperature [1]: 212.7 ± 1.1 °C
Molar enthalpy of transition or fusion [2]: 7.98 ± 0.359 kcal/mol
Structure (SMILES): COc1cc(C(=O)O)cc(OC)c1O [4-hydroxy-3,5-dimethoxybenzoic acid]
